Assay results from ChEMBL document CHEMBL1201862, “PubChem BioAssay data set” (2004).
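Dose response: 5 concentrations. Exposure: 48 h. Format: 96-well plates. Endpoint: linear interpolation; highest concentration if not reached. GI50 = concentration required for 50% inhibition of growth.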 Activity calls are given as the source filed them. Rule as the data show it: active = GI50 up to about 1.1 µM and inactive = higher.

Legend:
Assay in all cases: NCI tumour cell line growth inhibition, 48 h
DMS-273 = tested on: DMS-273
KM-20L2 = tested on: KM-20L2
LXFL 529 = tested on: LXFL 529
M19-MEL = tested on: M19-MEL
RXF 631 = tested on: RXF 631
XF498 = tested on: XF498

Measured: GI50

O=C(/C=C/c1c(O)ccc2ccccc12)c1ccccc1
inactive: DMS-273 > 100 µM | KM-20L2 > 100 µM | LXFL 529 > 100 µM | M19-MEL 29.4 µM | RXF 631 > 100 µM | XF498 > 100 µM

CC(C)c1ccc(/C=C(\NC(=O)c2ccccc2)c2nc3ccccc3[nH]2)cc1
inactive: DMS-273 37.9 µM | KM-20L2 58.1 µM | LXFL 529 31.8 µM | M19-MEL 33.3 µM | RXF 631 23.6 µM | XF498 55.3 µM

COc1ccc(C2=Nc3ccccc3NC(=O)C2)cc1
inactive: DMS-273 27.4 µM | KM-20L2 55.7 µM | LXFL 529 > 100 µM | M19-MEL 48.3 µM | RXF 631 > 100 µM | XF498 20.1 µM

Cc1cc2cc(Cl)ccc2nc1C(=O)c1ccccc1
inactive: DMS-273 > 100 µM | KM-20L2 > 100 µM | LXFL 529 > 100 µM | M19-MEL > 100 µM | RXF 631 > 100 µM | XF498 > 100 µM

C/C(=N/NC(=O)c1ccccc1O)c1ccc(/C(C)=N\NC(=O)c2ccccc2O)c2nc3cc(C)c(C)cc3nc12
inactive: DMS-273 > 100 µM | KM-20L2 > 100 µM | LXFL 529 > 100 µM | M19-MEL > 100 µM | RXF 631 > 100 µM | XF498 > 100 µM
